The subject of one assay is obese DIO mice. In words: Therapeutic weight loss effect in high fat diet induced obese (DIO) mice. Type of assay: in vivo, mouse. As to conditions: oral 30 mg/kg twice a day. The protocol: To determine the therapeutic weight loss effects and improvement of metabolic parameters, compounds from the invention are tested in the high fat diet (HFD) feeding induced obese mouse model (DIO mice). In this model, C57/B16J male mouse is fed with the 60% HFD (D12492i, Research Diets) for 16˜28 weeks to establish obesity with body weight reaching around 50 g. The mice will gradually increase the body weight to about 50 g and maintain that weight in this obese state. Test compound (via the vehicle of 0.5% HEC plus 0.25% Tween-80 at 5 mL/kg) is administered orally to the obese DIO mice once or twice daily throughout the study duration. The dose-dependent weight loss of obese DIO mice for Example 1 of the oral treatment at 30 mg/kg twice a day is about 6%, 10%, and 14% weight loss compared to the vehicle group at day 7, day 14, and day 21 respectively. The data support that the compound of Example 1 is associated with desired weight loss and offers therapeutic weight loss effect.

The target of another assay is T1, human MetAP1 (Homo sapiens, UniProt P53582).
T1 construct: Full length MetAP2 (human and mouse) and MetAP1 (human) proteins are generated from Sf9 cells; made in house; host or cells: Sf9 insect cells
In words: Enzymatic activity assay of human MetAP1 (fluorescent rhodamine substrate). Type of assay: biochemical. As to conditions: full length human MetAP1, substrate 50 μM, 60 min. On the procedure: (§1) Full length MetAP2 (human and mouse) and MetAP1 (human) proteins are generated from Sf9 cells using procedure similar to that described in Biochemistry 2003, 42, 5035-5042. MetAP2 and MetAP1 are purified in the presence of 5 mM MnCl2 and 2 mM CoCl2 respectively, and stored at −78° C. before use.
(§2) Compound inhibition of the catalytic activity of human and mouse MetAP2 in the present invention is monitored by the formation of the product peptide (Gly-Lys-Val-Lys-Val-Gly-Val-Asn-Gly) from the substrate peptide (Met-Gly-Lys-Val-Lys-Val-Gly-Val-Asn-Gly) via LC/MS detection. The reaction is typically conducted by incubating the enzyme, testing compound and substrate (150 μM) in a 100 μl assay buffer (50 mM HEPES, 100 mM NaCl, 50 mg/mL BSA, 0.17 mM Triton X-100 at pH 7.5) for 40 min. After the reaction is stopped by the addition of 200 μl acetonitrile, the levels of product and remaining substrate are quantified on a mass spectrometer. The activity of human MetAP1 is monitored by the formation of the fluorescent product rhodmine-methionine from the substrate methionine-rhodamine-methionine on a spectrophotometer with the excitation light at 460 nm and emission light at 535 nm. The reaction is typically conducted by incubating the enzyme, testing compound and substrate (50 μM) in a 100 μl assay buffer (50 mM HEPES, 100 mM NaCl, 0.1% BSA, 0.05% Tween-20, 50 μM CoCl2) for 60 min. […]

The target of another assay is T2, human MetAP2 (Homo sapiens, UniProt P50579).
T2 construct: Full length MetAP2 (human and mouse) and MetAP1 (human) proteins are generated from Sf9 cells; made in house; host or cells: Sf9 insect cells
T2 sequence (P50579 whole entry): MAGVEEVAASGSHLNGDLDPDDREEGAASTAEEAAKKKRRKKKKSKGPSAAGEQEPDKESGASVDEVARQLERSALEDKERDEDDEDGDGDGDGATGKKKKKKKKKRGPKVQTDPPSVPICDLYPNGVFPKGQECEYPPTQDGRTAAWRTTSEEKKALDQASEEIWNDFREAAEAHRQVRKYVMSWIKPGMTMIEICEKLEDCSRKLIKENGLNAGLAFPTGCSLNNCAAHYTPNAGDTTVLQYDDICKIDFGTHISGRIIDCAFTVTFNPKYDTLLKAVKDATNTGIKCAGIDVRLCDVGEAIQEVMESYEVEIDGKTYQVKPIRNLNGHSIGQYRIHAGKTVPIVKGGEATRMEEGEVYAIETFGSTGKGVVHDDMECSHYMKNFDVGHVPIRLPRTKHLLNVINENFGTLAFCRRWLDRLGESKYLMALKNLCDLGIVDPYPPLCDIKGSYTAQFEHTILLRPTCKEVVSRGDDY
Briefly: Enzymatic activity assay of human MetAP2 (LC/MS detection of product peptide). As to conditions: full length human MetAP2, substrate 150 μM, 40 min; read-out: IC50 value for hMetAP2. Format: biochemical. On the procedure:
as §1, §2

The next assay has as its target T3, mouse MetAP2 (Mus musculus, UniProt O08663).
T3 construct: Full length MetAP2 (human and mouse) and MetAP1 (human) proteins are generated from Sf9 cells; made in house; host or cells: Sf9 insect cells
In words: Enzymatic activity assay of mouse MetAP2 (LC/MS detection of product peptide). Type of assay: biochemical. Conditions: full length mouse MetAP2, substrate 150 μM, 40 min; read-out: IC50 value for mMetAP2. On the procedure: as §1, §2

T3 sequence (O08663 whole entry): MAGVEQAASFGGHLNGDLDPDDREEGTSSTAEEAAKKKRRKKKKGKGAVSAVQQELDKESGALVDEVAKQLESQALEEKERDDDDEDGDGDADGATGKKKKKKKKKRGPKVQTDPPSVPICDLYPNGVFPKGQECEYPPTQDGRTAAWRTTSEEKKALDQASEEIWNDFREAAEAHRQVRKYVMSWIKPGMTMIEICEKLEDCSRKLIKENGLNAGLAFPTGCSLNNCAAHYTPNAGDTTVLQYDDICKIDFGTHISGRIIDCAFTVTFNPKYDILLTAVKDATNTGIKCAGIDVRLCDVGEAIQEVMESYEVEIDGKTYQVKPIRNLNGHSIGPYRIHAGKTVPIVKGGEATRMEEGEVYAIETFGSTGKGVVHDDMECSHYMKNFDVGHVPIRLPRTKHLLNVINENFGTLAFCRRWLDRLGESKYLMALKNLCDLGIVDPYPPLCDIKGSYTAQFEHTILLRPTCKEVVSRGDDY

Consider `NC(=O)NCc1cccc(Oc2c[nH]nc2-c2ccc(F)cc2)c1` [Example 1, [3-[[3-(4-Fluorophenyl)-1H-pyrazol-4-yl]oxy]phenyl]methylurea], for which the entries for the “weight loss compared to the vehicle group” value with obese DIO mice (day 7), with obese DIO mice (day 14) and in the assay with obese DIO mice (day 21) were “about 6%”, roughly 10% and roughly 14%, respectively. The values for the IC50 on human MetAP1, at human MetAP2 and on mouse MetAP2 were greater than 30000 nM, 11 nM and 36 nM, respectively.
